Tests used:
[1] = tested on: BMMs; experiment: Quantitative real-time PCR gene expression in BMMs, wild-type and IFNAR deficient (Example 2); assay type: cell-based, murine; details: for TLR3 mRNA production / TLR4 mRNA production: primary macrophages, by four hours; for TLR3 mRNA production / TLR4 mRNA production / IFN-β and IP10 induction at one hour: poly I:C 1 μg/ml, lipid A 1 ng/ml; for IFI-204 expression at one hour / IFN-β and IP10 induction at one hour: wild type and IFNAR knockout macrophages; for ICAM1 mRNA (induction control): wild-type and knockout cells, one and four hours
Method: Murine BMMs were stimulated with poly(I:C) (10 μg/ml) or lipid A (1 ng/ml) for the indicated times. Total RiNA was isolated and converted to cDNA for quantitative real-time PCR analysis using primers specific for IFN-β, IFI-204, IP10, IκBα, or L32. Experiments were repeated three times, and the data are presented in relative expression units on a log scale, as described in Example 2, infra.
Primary macrophage cells derived from bone marrow cells were stimulated with poly I:C (1 μg/ml) or lipid A (1 ng/ml) for the indicated times, as described in Example 2, infra.
(B) TLR3 and TLR4 mRNA levels were also assessed in cells deficient in IFNAR, and cells stimulated with rIFN-β (10, 100, and 1000 U). Experiments were repeated at least two separate times, and data are presented in relative expression units. L32 was used to normalize all samples.
Both wild-type cells and cells deficient in IFNAR were stimulated with poly I:C (1 μg/ml) or lipid A (1 ng/ml) for either 1 or 4 h. IFN-β, IP10, IFI-204, ICAM1, and L32 mRNA levels were assessed. Data are representative of three independent experiments and presented in relative expression units, as described in Example 2, infra.
Murine bone marrow-derived macrophages (BMMs) were differentiated from marrow as previously described (Doyle, S. E., S. A. Vaidya, R. O'Connell, H. Dadgostar, P. W. Dempsey, T.-T. Wu, G. Rao, R. Sun, M. E. Haberland, R. L. Modlin, and G. Cheng. 2002. IRF3 mediates a TLR3/TLR4-specific antiviral gene program. Immunity 17:251). A129 (IFNAR-1^−/−) (Muller, U., U. Steinhoff, L. F. L. Reis, S. Hemmi, J. Pavlovic, R. M. Zinkernagel, and M. Aguet. 1994. Functional role of type I and type II interferons in antiviral defense. Science 264:1918) and B6129SF2/J wild type control mice were obtained from B&K Universal Ltd. and Jackson Laboratories, respectively. C57/B6 mice were used for all experiments not involving the A129 mice (Jackson Laboratories). Specific TLR activation was achieved using F-583 (Rd mutant) E. coli lipid A for TLR4 (Sigma), CpG oligonucleotides for TLR9 (Invitrogen) and poly I:C for TLR3 (Pharmacia). For experiments employing the TIRAP/MAL inhibitory peptide (CN Biosciences), cells were pretreated for 1 hour with 20 μM peptide or DMSO alone. Cells were then stimulated with PAMPs in the presence of the inhibitory peptide. For experiments using murine rIFN-β (R&D Systems), wild-type macrophage cells were stimulated with 10, 100, or 1000 units. Viral infection and harvest was performed using MHV68 at an M.O.I. of 5 as previously described (Doyle, S. E., S. A. Vaidya, R. O'Connell, H. Dadgostar, P. W. Dempsey, T.-T. Wu, G. Rao, R. Sun, M. E. Haberland, R. L. Modlin, and G. Cheng. 2002. IRF3 mediates a TLR3/TLR4-specific antiviral gene program. Immunity 17:251).
RNA was isolated by standard guanidium isothiocyanate methods. cDNA template for quantitative realtime PCR analysis was then synthesized and PCR was performed using the iCycler thermocycler (Bio-Rad) as previously described (Doyle, S. E., S. A. Vaidya, R. O'Connell, H. Dadgostar, P. W. Dempsey, T.-T. Wu, G. Rao, R. Sun, M. E. Haberland, R. L. Modlin, and G. Cheng. 2002. IRF3 mediates a TLR3/TLR4-specific antiviral gene program. Immunity 17:251). IFN-βIP10, IκBα and IFI-204 primers were the same as those previously described (Doyle, S. E., S. A. Vaidya, R. O'Connell, H. Dadgostar, P. W. Dempsey, T.-T. Wu, G. Rao, R. Sun, M. E. Haberland, R. L. Modlin, and G. Cheng. 2002. IRF3 mediates a TLR3/TLR4-specific antiviral gene program. Immunity 17:251). For other genes, the following primers were used: […]

[2] = tested on: STAT1; details: lipid A 1 ng/ml, poly I:C 1 μg/ml
Method: BMMs from both wild-type and IFNAR−/− mice were stimulated with lipid A (1 ng/ml), poly I:C (1 μg/ml), CpG (100 nM), or fresh medium (M) for the indicated time periods, as described in Example 2, infra.
(A): Cell lysates were subjected to western blotting analyses to detect phosphorylated STAT1 (P-STAT1) and total STAT1.
For STAT1 immunoblotting, cells were lysed in modified RIPA buffer and 20 μg of protein were loaded per lane and separated by SDS-PAGE. Gels were transferred to nitrocellulose filters and immunoblotted using the antibody manufacturers' recommended instructions. Antibodies specific to the STAT1 or the phosphorylated forms of STAT1 were obtained from Cell Signaling Technologies and Santa Cruz Biotechnologies, respectively. The anti-MyD88 antibody was purchased from ProSci Incorporated. For detection of MHV68, equal amounts were loaded in each lane and analyzed by western blotting techniques using rabbit anti-M9. Blots were stripped and re-probed with anti-actin (Sigma) to verify equal loading.
To address this issue we stimulated IFNAR^−/− BMMs with lipid A and poly I:C and assayed for STAT1 phosphorylation.

Substance: poly I:C
- expression of MyD88 and TIRAP/MAL [1]: can induce the expression
- induction of IFN-β, IP10 and IFI-204 relative to TLR4 agonist lipid A ([1]; BMMs, up to twelve hours, poly I:C 10 μg/ml vs lipid A 1 ng/ml): induced to higher levels and for extended periods of time
- IFI-204 expression by four hours, IFNAR knockout cells [1]: not detectable
- IP10 expression by four hours, IFNAR knockout cells [1]: remained relatively unchanged
- TLR3 mRNA production [1]: caused the induction of TLR3
- TLR4 mRNA production [1]: but not TLR4
- IFI-204 expression by four hours, wild type cells [1]: induced to high levels
- IP10 expression by four hours, wild type cells [1]: significantly enhanced
- IFI-204 expression at one hour [1]: remained at basal levels
- IFN-β and IP10 induction at one hour [1]: induced by one hour
- ICAM1 mRNA (induction control) [1]: elevated by one hour and remained high by four hours
- STAT1 activation in IFNAR−/− macrophage cells [2]: abolished

Substance: lipid A
- expression of MyD88 and TIRAP/MAL [1]: can induce the expression
- IFI-204 expression by four hours, IFNAR knockout cells [1]: not detectable
- IP10 expression by four hours, IFNAR knockout cells [1]: remained relatively unchanged
- TLR3 mRNA production [1]: caused the induction of TLR3
- TLR4 mRNA production [1]: but not TLR4
- IFI-204 expression by four hours, wild type cells [1]: induced to high levels
- IP10 expression by four hours, wild type cells [1]: significantly enhanced
- IFI-204 expression at one hour [1]: remained at basal levels
- IFN-β and IP10 induction at one hour [1]: induced by one hour
- ICAM1 mRNA (induction control) [1]: elevated by one hour and remained high by four hours
- STAT1 activation in IFNAR−/− macrophage cells [2]: abolished

— patent US20060057104A1, “Methods for stimulating tlr irf3 pathways for inducing anti-microbial, anti-inflammatory and anticancer responses” (THE Regents of the University of California Office of the …, priority 2002, published 2006)
